Source: patent publication US9029337B2, “Modulation of factor 7 expression” (Isis Pharmaceuticals, Inc., priority 2007, dated 2015)
Strand notation (5' to 3'): a small letter for the sugar, then the base; units joined by * are phosphorothioate-linked, units joined directly phosphodiester-linked; [ ] holds rarer units or linkages, { } end groups; capitals alone tell only the bases. e = 2'-O-(2-methoxyethyl) (MOE); [5mC] = 5-methylcytosine; d = 2'-deoxy (DNA)

Experiments:
Type in all cases: cell-based
human Factor 7 mRNA [1] = assay: Dose-dependent antisense inhibition of human Factor 7 in HepB3 cells, electroporation
Protocol: (§1) The gapmers were also transfected via electroporation and their dose-dependent inhibition of human Factor 7 mRNA was measured. Cells were plated at a density of 20,000 cells per well and transfected via electroporation with 3.125 μM, 6.25 μM, 12.5 μM, 25 μM, 50 μM, and 100 μM concentrations of antisense oligonucleotide, as specified in Table 15. After a treatment period of approximately 16 hours, RNA was isolated from the cells and Factor 7 mRNA levels were measured by quantitative real-time PCR. Human Factor 7 primer probe set RTS 2927 was used to measure mRNA levels. Factor 7 mRNA levels were adjusted according to total RNA content, as measured by RIBOGREEN®. Results are presented as percent inhibition of Factor 7, relative to untreated control cells.
as §1, with “Cells were” for “The gapmers were also transfected via electroporation and their dose-dependent inhibition of human Factor 7 mRNA was measured. Cells were”, “in […]. After a” for “in Table 15. After a”, “cells and human Factor 7” for “cells and Factor 7”

human Factor 7 mRNA [2] = assay: Dose-dependent antisense inhibition of human Factor 7 in HepB3 cells, lipofectin; conditions: HepB3 cells, approx. 16 hours (Table 14)
Summary of the method: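 HepB3 cells (4,000/well) lipofectin-transfected with antisense oligonucleotide at 3.125 or 6.25 up to 100 nM for ~16 h. Factor 7 mRNA measured by real-time RT-PCR with primer probe set RTS 2927, adjusted to RIBOGREEN total RNA; expressed as percent inhibition versus untreated control cells.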

human Factor 7 mRNA [3] = assay: Antisense inhibition of human Factor 7 mRNA in HepB3 cells, 50 nM antisense oligonucleotide, lipofectin; conditions: for % Inhibition: Table 13 (microwalk), 50 nM, lipofectin, approximately 24 hours; for % Inhibition of human Factor 7 mRNA levels: gapmers targeted to nucleobases 4868 to 4899 of SEQ ID NO: 1, Table 8
Summary of the method: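 Seeding density was 4,000 cells per well. Following roughly 24 hours of oligonucleotide treatment, RNA was extracted and Factor 7 message quantified using the RTS 2927 primer probe set. Levels were corrected for RIBOGREEN® total RNA and expressed against untreated controls.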

[4] = 3.125 μM, approx. 16 hours (Table 15, Example 7)
[5] = 6.25 μM, approx. 16 hours (Table 15, Example 7)
[6] = 12.5 μM, approx. 16 hours (Table 15, Example 7)
[7] = 25 μM, approx. 16 hours (Table 15, Example 7)
[8] = 50 μM, approx. 16 hours (Table 15, Example 7)
[9] = 100 μM, approx. 16 hours (Table 15, Example 7)
[10] = 3.125 μM, approx. 16 hours (Table 16, Example 8 confirmation)
[11] = 6.25 μM, approx. 16 hours (Table 16, Example 8 confirmation)
[12] = 12.5 μM, approx. 16 hours (Table 16, Example 8 confirmation)
[13] = 25 μM, approx. 16 hours (Table 16, Example 8 confirmation)
[14] = 50 μM, approx. 16 hours (Table 16, Example 8 confirmation)
[15] = 100 μM, approx. 16 hours (Table 16, Example 8 confirmation)

Substance | percent inhibition of Factor 7 mRNA, relative to untreated control cells (human Factor 7 mRNA [1]; [4]) | percent inhibition of Factor 7 mRNA, relative to untreated control cells (human Factor 7 mRNA [1]; [5]) | percent inhibition of Factor 7 mRNA, relative to untreated control cells (human Factor 7 mRNA [1]; [6]) | percent inhibition of Factor 7 mRNA, relative to untreated control cells (human Factor 7 mRNA [1]; [7]) | percent inhibition of Factor 7 mRNA, relative to untreated control cells (human Factor 7 mRNA [1]; [8]) | percent inhibition of Factor 7 mRNA, relative to untreated control cells (human Factor 7 mRNA [1]; [9]) | percent inhibition of Factor 7 mRNA, relative to untreated control cells (human Factor 7 mRNA [2]; 3.125 nM) | percent inhibition of Factor 7 mRNA, relative to untreated control cells (human Factor 7 mRNA [2]; 12.5 nM) | percent inhibition of Factor 7 mRNA, relative to untreated control cells (human Factor 7 mRNA [2]; 25 nM) | percent inhibition of Factor 7 mRNA, relative to untreated control cells (human Factor 7 mRNA [2]; 50 nM) | percent inhibition of Factor 7 mRNA, relative to untreated control cells (human Factor 7 mRNA [2]; 100 nM) | percent inhibition of Factor 7 mRNA, relative to untreated control cells (human Factor 7 mRNA [2]) | % Inhibition (human Factor 7 mRNA [3]) | % Inhibition of human Factor 7 mRNA levels (human Factor 7 mRNA [3]) | percent inhibition of Factor 7 mRNA, relative to untreated control cells (human Factor 7 mRNA [1]; [10]) | percent inhibition of Factor 7 mRNA, relative to untreated control cells (human Factor 7 mRNA [1]; [11]) | percent inhibition of Factor 7 mRNA, relative to untreated control cells (human Factor 7 mRNA [1]; [12]) | percent inhibition of Factor 7 mRNA, relative to untreated control cells (human Factor 7 mRNA [1]; [13]) | percent inhibition of Factor 7 mRNA, relative to untreated control cells (human Factor 7 mRNA [1]; [14]) | percent inhibition of Factor 7 mRNA, relative to untreated control cells (human Factor 7 mRNA [1]; [15]) | further results
422228 (antisense eT*eG*d[5mC]*dA*dT*dG*dG*dT*dG*dA*dT*dG*d[5mC]*dT*dT*e[5mC]*eT*eG*eA*eA) [compound 422228] | 18% | 33% | 40% | 47% | 71% | 83% | 17% | 43% | 60% | 78% | 90% | 25% | 73% |  |  |  |  |  |  |  | 
422215 (antisense eG*eT*eT*d[5mC]*dT*dG*d[5mC]*dA*dG*dG*dA*dG*d[5mC]*dG*dG*d[5mC]*d[5mC]*eT*eA*eA) [compound 422215] | 11% | 9% | 31% | 50% | 68% | 84% | 13% | 54% | 65% | 84% | 82% | 30% |  | 73% |  |  |  |  |  |  | 
422177 (antisense e[5mC]*e[5mC]*e[5mC]*dG*d[5mC]*d[5mC]*dG*dG*d[5mC]*dT*d[5mC]*dT*dG*d[5mC]*dT*d[5mC]*dA*eT*e[5mC]*e[5mC]) [compound 422177] | 3% | 10% | 29% | 21% | 31% | 63% | 12% | 44% | 64% | 81% | 88% | 24% |  |  |  |  |  |  |  |  | % Inhibition (human Factor 7 mRNA levels) (human Factor 7 mRNA [3]; oligonucleotides targeted to nucleobases 13760 to 13789 of SEQ ID NO: 1 (Table 10)): 74%
422229 (antisense eA*eT*dG*d[5mC]*dA*dT*dG*dG*dT*dG*dA*dT*dG*d[5mC]*dT*eT*e[5mC]*eT*eG*eA) [compound 422229] | 21% | 30% | 33% | 44% | 65% | 77% | 21% | 53% | 72% | 86% | 92% | 32% | 71% |  | 30% | 45% | 67% | 79% | 90% | 92% | 
422296 (antisense e[5mC]*e[5mC]*dG*dA*dG*dT*dT*d[5mC]*dT*dG*d[5mC]*dA*dG*dG*dA*eG*e[5mC]*eG*eG*e[5mC]) [compound 422296] | 62% | 40% | 56% | 56% | 82% | 84% | 21% | 39% | 67% | 78% | 82% | 27% |  | 74% | 47% | 44% | 70% | 78% | 80% | 82% | 
422142 (antisense eG*eA*eG*eT*eT*d[5mC]*dT*dG*d[5mC]*dA*dG*dG*dA*dG*d[5mC]*eG*eG*e[5mC]*e[5mC]*eT) [compound 422142] | 26% | 47% | 63% | 67% | 77% | 78% | 16% | 51% | 66% | 72% | 68% | 34% |  | 73% | 34% | 47% | 62% | 67% | 65% | 65% | 
